Experimental data: US11576892B2, “Benzopyran derivatives and uses thereof” (Novation Pharmaceuticals Inc., priority 2015, dated 2023)

Legend:
IL-17 release from PBMCs = IL-17 release from PBMCs measured by ELISA; type: cell-based; conditions: human PBMCs
Description: (§1) Mononuclear cells are obtained from the blood of healthy volunteers via centrifugation and cultivated on tissue culture dishes with the test compound at various concentrations Schnyder, Bollinger et al. (1990). Inhibition of interleukin-1 release by IX 207-887. Agents Actions. 30: 350-362. Fresh human mononuclear cells were isolated on Ficoll-Paque gradient and washed several times. Fresh medium, test compound and LPS (10 μg/ml) or PHA (5 μg/ml) as stimulant are added and the monocytes incubated for a further day. The media are then removed and clarified by centrifugation at 1000×g for 10 min. Samples are stored at […] until the determinations can be made. IFNγ, IL 1β, IL 6, and IL-17 are determined using commercially available ELISA kits.

IFNγ release from PBMCs = IFNγ release from PBMCs measured by ELISA; type: cell-based; conditions: 5 μM, human PBMCs
Description: as §1

[1] = test system: IL-6 release from THP 1 cells; assay: IL-6 release from THP 1 cells measured by ELISA; type: cell-based, human; conditions: IFNγ/LPS-stimulated THP 1 cells, 24 h
Description: (§2) The THP 1 cell line is generally available and is described by Tsuchia et. al. Tsuchiya, Yamabe et al. (1980). Establishment and characterization of a human acute monocytic leukemia cell line (THP-1). Int J Cancer. 26: 171-176.
(§3) 900 μl THP 1 cells (0.5×10^6 cells) together with 100 Uγ interferon/0.9 ml RPMI 1640 medium (containing 2 mM L glutamine and 5% heat inactivated fetal calf serum) are pipetted into 24-well culture plates. 100 μl of the compound to be tested are then added. After 3 hours at 37° C. in 5% CO2/95% air, 10 μl lipopolysaccharide (LPS) 500 μg/ml is added and the incubation continued for a further 24 hours. Appropriate controls (with and without stimulus, solvent) are also included. The media are then removed and clarified by centrifugation at 1000 g for 10 min. Samples are stored at […] until the determinations can be made. IL 1β, IL 6 IL-12, and IL-23 assays are determined using commercially available ELISA kits. In these tests, the compounds of the disclosure may inhibit IL-1β, IL-6, IL-12 and IL-23 release at a concentration of about 10 to 50 μM. The compounds are non-toxic based on resazurin measurements as described in Didiot, Hewett et al. (2013). Identification of cardiac glycoside molecules as inhibitors of c-Myc IRES-mediated translation. J Biomol Screen. 18: 407-419.

[2] = test system: IL-1β release from THP 1 cells; assay: IL-1β release from THP 1 cells measured by ELISA; type: cell-based, human; conditions: IFNγ/LPS-stimulated THP 1 cells
Description: as §2, §3

IL-6 release from PBMCs = IL-6 release from PBMCs measured by ELISA; type: cell-based; conditions: LPS or PHA stimulated human PBMCs
Description: as §1

TNF-alpha = assay: LPS-induced cytokine release in mice, serum TNF-alpha; type: in vivo; conditions: 100 mg/kg pre-treatment; serum 4 h post LPS; CD-1 mouse
Description: (§4) Compounds were evaluated on intra-peritoneal LPS-induced cytokine release measured in serum in the CD-1 mouse. Vehicle, Test item and positive control were administered 1 h before LPS injection as well 30 min post LPS injection (except as otherwise varied herein). In serum samples collected at 4 h post LPS injection, following cytokines were measured by multiplex on MSD 10 V-plex platform: TNF-alpha, IFN-gamma, IL-1beta, IL-2, IL-4, IL-5, IL-6, IL-10, IL-12, KC/GRO. All cytokines except IL-5 were induced by LPS injection (compared with saline injection).
(§5) Serum samples collected at 4h post LPS challenge were analyzed in duplicate wells using multiplex on MSD 10 V-plex platform. […] FIG. 1: Effect of test compounds 333 (TI1) and 1781 (TI2) on IFN-gamma levels in serum of LPS treated mice. FIG. 2: Effect of test compounds 333 (TI1) and 1781 (TI2) on IFN-gamma levels in serum of LPS treated mice (values of individual animals)

IFN-gamma = assay: LPS-induced cytokine release in mice, serum IFN-gamma; type: in vivo; conditions: 100 mg/kg pre-treatment; serum 4 h post LPS; CD-1 mouse
Description: as §4, §5

IL-6 mRNA [3] = assay: IL-6 mRNA levels in IFN-γ/LPS-stimulated THP-1 cells (RT-PCR); type: cell-based, human; conditions: γIFN/LPS, 24h, compounds 10 μM, RT-PCR vs β-actin
Description: Total RNA was isolated at t=24 h from IFN-γ/LPS-stimulated THP-1 cells exposed to compounds (10 μM) or DMSO (solvent control) for 24 […], using the RNeasy Midi Kit (Qiagen), according to the manufacturer's instructions, and eluted in DEPC-treated Milli-Q H2O. Quantity and purity of RNA were determined by absorbance at 260 and 280 nm.
For RT-PCR analysis, 1 μg of total RNA was reverse transcribed using AMV reverse transcriptase (Life Sciences Inc., St. Petersburg, Fla.), then amplified by the PCR method. Each PCR reaction also contained a set of β-actin primers as internal control. The levels of the expected PCR product were compared to the constant levels of β-actin. The size of the PCR products was compared to MspI digested pBR322 standards (New England Biolabs). PCR products were analyzed on a 4% agarose gel.
Nucleotide sequences for the oligonucleotide 5′ and 3′ primers, respectively, were: […]

[4] = test system: IL-23 release from THP 1 cells; assay: IL-23 release from THP 1 cells measured by ELISA; type: cell-based, human; conditions: IFNγ/LPS-stimulated THP 1 cells
Description: as §2, §3

IL-1β release from PBMCs = IL-1β release from PBMCs measured by ELISA; type: cell-based; conditions: LPS or PHA stimulated human PBMCs
Description: as §1

IL-12 = assay: LPS-induced cytokine release in mice, serum IL-12; type: in vivo; conditions: 100 mg/kg pre-treatment; serum 4 h post LPS; CD-1 mouse
Description: as §4, §5

IL-23 p19 mRNA = assay: mRNA stability reporter gene (luciferase) assay, IL-23 p19; type: cell-based; conditions: 10 μM, 24 h, n.a. = no activity
Description: (§6) The basic principle of a reporter gene assay for determining compounds that destabilize mRNA is described in detail in WO 00/39314. A number of these assays for various drug targets have been developed and were tested with the compounds described in this disclosure. For THP-1 cells, compound is added at the time of the addition of LPS and luciferase measurements are taken 24 hours later or as indicated. For other cell lines, cells were plated in 96 well plates at 5*10^5 cells per 100 ul per well and incubated over night at 37° C. Compounds were then added and luciferase activity was measured after 24 hours. The activity was compared to other mRNA stability assays established for a range of other drug targets and found to be specific for IL-6, IL-12p40 and IL-23p19. Luciferase activity in the IL-6, IL-12 and IL-23 assays was inhibited by 10 μM benzopyran derivatives by >40% (Table IV).

IL-12 p40 mRNA = assay: mRNA stability reporter gene (luciferase) assay, IL-12 p40; type: cell-based; conditions: 10 μM, 24 h, n.a. = no activity
Description: as §6

IL-6 mRNA [5] = assay: mRNA stability reporter gene (luciferase) assay, IL-6; type: cell-based; conditions: 24 h; for IC50: luciferase reporter
Description: as §6

IL-4 = assay: LPS-induced cytokine release in mice, serum IL-4; type: in vivo; conditions: 100 mg/kg pre-treatment; serum 4 h post LPS; CD-1 mouse
Description: as §4, §5

SNCA mRNA = assay: mRNA stability reporter gene (luciferase) assay, SNCA; type: cell-based; conditions: 10 μM, 24 h, n.a. = no activity
Description: as §6

APP mRNA = assay: mRNA stability reporter gene (luciferase) assay, APP; type: cell-based; conditions: 10 μM, 24 h, n.a. = no activity
Description: as §6

Htt mRNA = assay: mRNA stability reporter gene (luciferase) assay, Htt; type: cell-based; conditions: 10 μM, 24 h, n.a. = no activity
Description: as §6

DNMT1 mRNA = assay: mRNA stability reporter gene (luciferase) assay, DNMT1; type: cell-based; conditions: 10 μM, 24 h, n.a. = no activity
Description: as §6

IL-23 p19 mRNA stability assay (% inhibition) (IL-23 p19 mRNA)	IL-12 p40 mRNA stability assay (% inhibition) (IL-12 p40 mRNA)	SMILES	IL-17 release from PBMCs, % control (48 h) (IL-17 release from PBMCs; 2.5 μM) [% control]	IL-17 release from PBMCs, % control (48 h) (IL-17 release from PBMCs; 5 μM) [% control]	IL-17 release from PBMCs, % control (48 h) (IL-17 release from PBMCs; 10 μM) [% control]	IFNγ release from PBMCs, % control (24 h) (IFNγ release from PBMCs) [% control]	IL-6 release from THP 1 cells, % control ([1]; 10 μM) [% control]	IL-6 release from THP 1 cells, % control ([1]; 40 μM) [% control]	IL-6 release from THP 1 cells, % control ([1]; 100 μM) [% control]	IL-1β release from THP 1 cells, % control at 10 μM [2] [% control]	IL-6 release from PBMCs (% control) (IL-6 release from PBMCs; 2.5 μM)	IL-6 release from PBMCs (% control) (IL-6 release from PBMCs; 5 μM)	IL-6 release from PBMCs (% control) (IL-6 release from PBMCs; 10 μM)	IL-6 release from PBMCs (% control) (IL-6 release from PBMCs; 20 μM)	IL-6 mRNA analysis, % ctrl (IL-6 mRNA [3]) [% ctrl]	IL-23 release from THP 1 cells, % control at 10 μM [4] [% control]	IL-1β release from PBMCs (% control) (IL-1β release from PBMCs; 2.5 μM)	IL-1β release from PBMCs (% control) (IL-1β release from PBMCs; 5 μM)	IL-1β release from PBMCs (% control) (IL-1β release from PBMCs; 10 μM)	IL-1β release from PBMCs (% control) (IL-1β release from PBMCs; 20 μM)	further results
41	62	COc1ccc(Oc2coc3cc(O)ccc3c2=O)cc1 [Compound 1781]				75	74	64	55	100	115	127	83	57	92	100	136	137	104	104	Effect on serum TNF-alpha (TNF-alpha): trend of effect; Effect on LPS-induced increase in serum IFN-gamma level (IFN-gamma): significantly blocked; Effect on serum IL-12 (IL-12): trend of effect; IL-6 mRNA stability assay (% inhibition) (IL-6 mRNA [5]; 10 μM, luciferase, n.a. = no activity): 84 % inhibition; Effect on serum IL-4 (IL-4): trend of effect
94	64	COc1cc(O)c2c(c1OC)/C=C/C[C@H](O)[C@H](O)C(=O)/C=C\C[C@H](C)OC2=O [RAA, radicicol analog A, reference compound]					3	2	3		10	9	11	11			4	4	4	4	SNCA mRNA stability assay (% inhibition) (SNCA mRNA): 25 % inhibition; APP mRNA stability assay (% inhibition) (APP mRNA): 5 % inhibition; Htt mRNA stability assay (% inhibition) (Htt mRNA): 35 % inhibition; DNMT1 mRNA stability assay (% inhibition) (DNMT1 mRNA): 19 % inhibition; IC50 (IL-6 mRNA [5]; unit printed truncated): 0.128 µM

Further lines, the compound ahead of its results:

SMILES	IL-23 p19 mRNA stability assay (% inhibition) (IL-23 p19 mRNA)	IL-12 p40 mRNA stability assay (% inhibition) (IL-12 p40 mRNA)	IL-17 release from PBMCs, % control (48 h) (IL-17 release from PBMCs; 2.5 μM) [% control]	IL-17 release from PBMCs, % control (48 h) (IL-17 release from PBMCs; 5 μM) [% control]	IL-17 release from PBMCs, % control (48 h) (IL-17 release from PBMCs; 10 μM) [% control]	IFNγ release from PBMCs, % control (24 h) (IFNγ release from PBMCs) [% control]	IL-6 release from THP 1 cells, % control ([1]; 10 μM) [% control]	IL-6 release from THP 1 cells, % control ([1]; 40 μM) [% control]	IL-6 release from THP 1 cells, % control ([1]; 100 μM) [% control]	IL-1β release from THP 1 cells, % control at 10 μM [2] [% control]	IL-6 release from PBMCs (% control) (IL-6 release from PBMCs; 2.5 μM)	IL-6 release from PBMCs (% control) (IL-6 release from PBMCs; 5 μM)	IL-6 release from PBMCs (% control) (IL-6 release from PBMCs; 10 μM)	IL-6 release from PBMCs (% control) (IL-6 release from PBMCs; 20 μM)	IL-6 mRNA analysis, % ctrl (IL-6 mRNA [3]) [% ctrl]	IL-23 release from THP 1 cells, % control at 10 μM [4] [% control]	IL-1β release from PBMCs (% control) (IL-1β release from PBMCs; 2.5 μM)	IL-1β release from PBMCs (% control) (IL-1β release from PBMCs; 5 μM)	IL-1β release from PBMCs (% control) (IL-1β release from PBMCs; 10 μM)	IL-1β release from PBMCs (% control) (IL-1β release from PBMCs; 20 μM)	further results
CC(=O)Oc1ccc2c(=O)c(Oc3ccc(C(=O)O)cc3)coc2c1 [Compound 276]			79	46	57	100															
COC(=O)c1ccc(Oc2coc3cc(O)ccc3c2=O)cc1 [Compound 333, methyl 4-[(7-hydroxy-4-oxo-4H-chromen-3-yl)oxy]benzoate]	76	72	93	80	41	43	48	43	35	49	121	158	176	68	94	68	105	91	58	45	Effect on serum TNF-alpha (TNF-alpha): trend of effect; Effect on LPS-induced increase in serum IFN-gamma level (IFN-gamma): significantly blocked; Effect on serum IL-12 (IL-12): trend of effect; IC50 (IL-6 mRNA [5]): 2.51 µM; Effect on serum IL-4 (IL-4): trend of effect
CC(=O)Oc1ccc2c(=O)c(Oc3ccccc3)coc2c1 [Compound 1782]							56	57	28	100	106	139	89	61	93	93	123	115	109	89	
